In PubChem BioAssay AID1963834 (Molecular Pharmacology Branch, DTP, NCI, 2024):

Test system: 873145-292-R-J1-PDC complex spheroid viability
Test: Anticancer human tumor 873145-292-R-J1-PDC patient-derived renal clear cell carcinoma cell line growth inhibition [POLQ]
Details: for IC50: curve of first compound; for viability, T/C: stronger effect = lower value
Procedure: Multicellular complex tumor spheroid response to Polymerase (POL) inhibitors (novobiocin, ART-558, RP6685) in combination with a variety of drugs and investigational agents in selected tumor cell lines
The POL inhibitors (novobiocin, ART-558, and RP6685) were evaluated both individually and in combination with standard of care and investigational anticancer small molecules within a complex spheroid model of solid tumors. . Complex spheroids include a stromal component modeled by human endothelial cells (HUVEC) and fibroblasts modeled by human mesenchymal stem cells (MSCs). The concentration ranges selected for each drug and investigational agent were based upon clinically achievable concentrations if the clinical Cmax of the agent was known.
Compounds. The drugs and investigational agents: novobiocin (NSC847541), ART-558 (NSC835418), RP-6685 (NSC848927), peposertib (NSC802822), ceralasertib (NSC780249), elimusertib (NSC800525), camonsertib (NSC841442), AZD-1390 (NSC803789), olaparib (NSC753686), talazoparib (NSC767125), rucaparib (NSC756644), sotorasib (NSC818433), MRTX-1133 (NSC836407), SN-38 (NSC673596), topotecan (NSC609699), epotoside (NSC141540), doxorubicin (NSC123127), gemcitabine (NSC613327), 5-fluorouracil (NSC19893), paclitaxel (NSC125973), vemurafenib (NSC761431), MSA-2 (NSC828583), SN-011 (NSC837082), adavosertib (NSC754352), prexasertib (NSC758257), carboplatin (NSC241240) and oxaliplatin (NSC266046), were obtained from the National Cancer Institute (NCI) Developmental Therapeutics Program Chemical Repository (21). The FDA-approved anticancer drug set is available from the Developmental Therapeutics Program at https://dtp.cancer.gov/organization/dscb/obtaining/. […] The stock solutions were prepared in dimethyl sulfoxide (DMSO, Sigma-Aldrich, St. Louis, MO, cat. D2650), except for the platinum compounds which were prepared in saline (Quality Biological, Gaithersburg, MD, cat. 114-055-101), at 800-fold the tested concentration and stored at -70 degrees C prior to their use. All drugs and investigational agents were tested over a range starting from a high concentration at or near the clinical Cmax and decreasing in half-log increments. If the clinical Cmax for an agent had not been determined, the highest concentration tested was 10 microM, except for SN-38, which was tested at a high concentration of 1 microM.
Cell Culture. All cells were maintained in an incubator at 37 degrees C and 5% CO2 with 95% humidity. The PDC lines were cultured according to standard operating procedures established by the NCI PDMR (https://pdmr.cancer.gov). Table 3 of the manuscript, lists the cell lines along with the number of the three cell types plated to form the mct-spheroids and media for tumor cell growth. After thawing, all PDC lines, except 997537-175-T-J1-PDC and 415267-285-R-J2-PDC, were cultured in Matrigel-coated flasks prepared with a working solution of 1X Ham's F-12 nutrient mix, without supplementation (Thermo Fisher Scientific, cat. 11765054), 100 U/mL penicillin-streptomycin (Thermo Fisher Scientific, cat. 15140122), and 2.5% Matrigel (Corning Inc., Corning, NY, cat. 354248) for the first three passages. The two PDC lines 997537-175-T-J1-PDC and 415267-285-R-J2-PDC were cultured on uncoated flasks. The 857933-349-R-J2-PDC line was cultured in 6C/Colon 1B media containing advanced DMEM/F-12 (Thermo Fisher Scientific, cat. 12634028), 10 mM HEPES (Thermo Fisher Scientific, cat. 15630080), 1X GlutaMAX supplement (Thermo Fisher Scientific, cat. 35050061), 0.1 mg/mL primocin (InvivoGen, San Diego, CA, cat. ant-pm-2), 10% defined fetal bovine serum, heat inactivated (HyClone Laboratories Inc., Logan, UT, cat. SH30070.03HI), 50% L-WRN conditioned media (ATCC, cat. CRL-3276), 1.25 mM N-Acetyl-L-cysteine (Sigma-Aldrich, cat. A9165), 10 mM nicotinamide (Sigma-Aldrich, cat. N0636), 1X B-27 supplement (Thermo Fisher Scientific, cat. 17504044), 1X N-2 supplement (Thermo Fisher Scientific, cat. […]
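Also: spheroids exposed to compounds for 7 days before viability readout.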
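For viability, T/C in this document: luminescence signal used as surrogate for viable cell content; 100% = DMSO vehicle control viability.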

## CC[C@@]1(O)C(=O)OCc2c1cc1n(c2=O)Cc2cc3c(CN(C)C)c(O)ccc3nc2-1 + Cc1cccc(N(C)C(=O)C2C(O)CCN2c2nc(C)cc(C(F)(F)F)c2C#N)c1
Second compound 0.0316 µM
  IC50: > 0.1 µM
Second compound 0.1 µM
  IC50: > 0.1 µM
Second compound 0.316 µM
  IC50: 0.0922 µM
Second compound 1 µM
  IC50: > 0.1 µM
Second compound 3.16 µM
  IC50: > 0.1 µM
Second compound 10 µM
  IC50: > 0.1 µM
Second compound 0.0316 µM, first compound 0.000316 µM
  viability, T/C: 105%
Second compound 0.0316 µM, first compound 0.001 µM
  viability, T/C: 95.2%
Second compound 0.0316 µM, first compound 0.00316 µM
  viability, T/C: 89.6%
Second compound 0.0316 µM, first compound 0.01 µM
  viability, T/C: 104%
Second compound 0.0316 µM, first compound 0.0316 µM
  viability, T/C: 73.7%
Second compound 0.0316 µM, first compound 0.1 µM
  viability, T/C: 52.5%
Second compound 0.1 µM, first compound 0.000316 µM
  viability, T/C: 93.3%
Second compound 0.1 µM, first compound 0.001 µM
  viability, T/C: 101%
Second compound 0.1 µM, first compound 0.00316 µM
  viability, T/C: 97.8%
Second compound 0.1 µM, first compound 0.01 µM
  viability, T/C: 101%
Second compound 0.1 µM, first compound 0.0316 µM
  viability, T/C: 74.4%
Second compound 0.1 µM, first compound 0.1 µM
  viability, T/C: 52.2%
Second compound 0.316 µM, first compound 0.000316 µM
  viability, T/C: 94.9%
Second compound 0.316 µM, first compound 0.001 µM
  viability, T/C: 113%
Second compound 0.316 µM, first compound 0.00316 µM
  viability, T/C: 96.8%
Second compound 0.316 µM, first compound 0.01 µM
  viability, T/C: 97.3%
Second compound 0.316 µM, first compound 0.0316 µM
  viability, T/C: 78.7%
Second compound 0.316 µM, first compound 0.1 µM
  viability, T/C: 47.8%
Second compound 1 µM, first compound 0.000316 µM
  viability, T/C: 101%
Second compound 1 µM, first compound 0.001 µM
  viability, T/C: 98.9%
Second compound 1 µM, first compound 0.00316 µM
  viability, T/C: 87.9%
Second compound 1 µM, first compound 0.01 µM
  viability, T/C: 104%
Second compound 1 µM, first compound 0.0316 µM
  viability, T/C: 75%
Second compound 1 µM, first compound 0.1 µM
  viability, T/C: 59.2%
Second compound 3.16 µM, first compound 0.000316 µM
  viability, T/C: 89.6%
Second compound 3.16 µM, first compound 0.001 µM
  viability, T/C: 91.5%
Second compound 3.16 µM, first compound 0.00316 µM
  viability, T/C: 92.8%
Second compound 3.16 µM, first compound 0.01 µM
  viability, T/C: 97.8%
Second compound 3.16 µM, first compound 0.0316 µM
  viability, T/C: 78%
Second compound 3.16 µM, first compound 0.1 µM
  viability, T/C: 63.9%
Second compound 10 µM, first compound 0.000316 µM
  viability, T/C: 93.4%
Second compound 10 µM, first compound 0.001 µM
  viability, T/C: 95.2%
Second compound 10 µM, first compound 0.00316 µM
  viability, T/C: 94.5%
Second compound 10 µM, first compound 0.01 µM
  viability, T/C: 98.8%
Second compound 10 µM, first compound 0.0316 µM
  viability, T/C: 81.8%
Second compound 10 µM, first compound 0.1 µM
  viability, T/C: 54.5%
